According to patent US20090227587A1, “Pyrimidines as inhibitors of phosphoinositide-3-kinases (PI3K)” (Warner-Lambert Company LLC, priority 2003, published 2009):

Legend:
[1] = biological target: T1, p101/p110γ protein (PI3Kγ) (Homo sapiens, UniProt P48736); test: PI3Kγ in vitro kinase assay; type: biochemical; settings: purified recombinant p101/p110γ with G protein β1/γ2 subunits, 20 μM ATP, PIP2 lipid micelles
T1 construct: HA; made in house; host or cells: Spodoptera frugiperda (Sf9) cells, baculovirus co-infection
T1 sequence (P48736 whole entry, species assumed): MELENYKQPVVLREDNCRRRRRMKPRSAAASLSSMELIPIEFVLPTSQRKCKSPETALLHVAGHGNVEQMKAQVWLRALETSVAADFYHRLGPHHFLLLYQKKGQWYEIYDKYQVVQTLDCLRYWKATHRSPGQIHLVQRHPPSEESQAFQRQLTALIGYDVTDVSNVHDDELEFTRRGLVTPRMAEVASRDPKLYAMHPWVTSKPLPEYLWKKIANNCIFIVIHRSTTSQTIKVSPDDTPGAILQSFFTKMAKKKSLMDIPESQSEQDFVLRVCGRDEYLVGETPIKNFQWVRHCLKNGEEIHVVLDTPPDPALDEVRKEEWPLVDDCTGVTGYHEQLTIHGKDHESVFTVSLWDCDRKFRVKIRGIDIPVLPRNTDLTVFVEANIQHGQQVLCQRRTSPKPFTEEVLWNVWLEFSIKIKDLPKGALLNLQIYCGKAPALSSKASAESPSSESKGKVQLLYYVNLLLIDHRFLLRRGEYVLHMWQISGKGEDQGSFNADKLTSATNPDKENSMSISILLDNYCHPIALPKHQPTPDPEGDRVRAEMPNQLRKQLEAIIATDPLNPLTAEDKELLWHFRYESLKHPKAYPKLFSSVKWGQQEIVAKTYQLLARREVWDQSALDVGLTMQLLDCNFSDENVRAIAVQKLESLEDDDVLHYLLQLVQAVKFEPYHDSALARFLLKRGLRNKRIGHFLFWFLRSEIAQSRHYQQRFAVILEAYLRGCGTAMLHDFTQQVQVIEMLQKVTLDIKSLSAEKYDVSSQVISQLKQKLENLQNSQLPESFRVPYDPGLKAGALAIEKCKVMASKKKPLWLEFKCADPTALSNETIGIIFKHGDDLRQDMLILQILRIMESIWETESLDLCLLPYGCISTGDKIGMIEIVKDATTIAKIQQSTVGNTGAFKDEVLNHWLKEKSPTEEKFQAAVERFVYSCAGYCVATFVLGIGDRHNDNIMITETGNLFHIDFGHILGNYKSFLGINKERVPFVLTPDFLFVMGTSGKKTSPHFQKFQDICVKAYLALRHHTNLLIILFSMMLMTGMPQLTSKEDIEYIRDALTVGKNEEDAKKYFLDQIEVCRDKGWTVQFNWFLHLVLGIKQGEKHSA
T1 sequence (Q8WYR1 whole entry partner, species assumed): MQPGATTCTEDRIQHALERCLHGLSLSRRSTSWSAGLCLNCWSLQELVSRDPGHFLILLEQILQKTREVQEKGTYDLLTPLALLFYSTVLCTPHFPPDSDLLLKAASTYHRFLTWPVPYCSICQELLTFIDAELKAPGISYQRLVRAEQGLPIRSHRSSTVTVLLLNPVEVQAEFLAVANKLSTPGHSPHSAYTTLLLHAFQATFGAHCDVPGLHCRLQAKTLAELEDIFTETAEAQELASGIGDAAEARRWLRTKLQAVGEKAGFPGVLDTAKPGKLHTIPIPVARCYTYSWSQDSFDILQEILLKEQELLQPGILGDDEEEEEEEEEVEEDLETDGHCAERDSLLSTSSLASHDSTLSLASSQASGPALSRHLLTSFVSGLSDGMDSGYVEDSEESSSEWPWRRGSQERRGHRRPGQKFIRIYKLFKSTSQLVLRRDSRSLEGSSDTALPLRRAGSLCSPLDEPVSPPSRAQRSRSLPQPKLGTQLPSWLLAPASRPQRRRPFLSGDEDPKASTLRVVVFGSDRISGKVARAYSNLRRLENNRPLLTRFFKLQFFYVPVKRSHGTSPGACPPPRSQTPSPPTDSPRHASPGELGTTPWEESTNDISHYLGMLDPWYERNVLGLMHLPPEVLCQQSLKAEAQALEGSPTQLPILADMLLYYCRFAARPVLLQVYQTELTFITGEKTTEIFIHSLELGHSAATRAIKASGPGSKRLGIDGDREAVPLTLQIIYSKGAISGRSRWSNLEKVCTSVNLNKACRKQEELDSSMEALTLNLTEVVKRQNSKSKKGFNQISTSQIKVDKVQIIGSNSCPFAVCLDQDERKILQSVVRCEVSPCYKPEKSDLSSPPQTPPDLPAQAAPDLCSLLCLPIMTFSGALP
Experimental: Spodtera frugiperda cells, grown in ESF921 media, were co-infected with baculovirus expressing a glu-tagged p101 and baculovirus expressing an HA-tagged p110γ, at a 3:1 ratio of p101 baculovirus to p110γ baculovirus. Sf9 cells were grown to 1×10^7 total cells/mL in 10 L bioreactors and harvested 48-72 hours post infection. Samples of infected cells were then tested for expression of p101/p110γ PI3 kinase by immunoprecipitation and Western Blot analysis methods (see below).
To purify PI3Kγ, 4 volumes of room temperature hypotonic lysis buffer (1 mM MgCl2, 1 mM DTT, 5 mM EGTA, 1 mM Pefabloc, 0.5 μM aprotinin, 5 μM leupeptin, 2 μM pepstatin, 5 μM E64, pH 8) per gram of cell paste, was poured onto frozen cell pellets with stirring, then lysed in a nitrogen “bomb” at 400 psi (599HC T316, Parr Instrument Co, Moline, Ill.). NaCl was added to 150 mM, and sodium cholate was added to 1% and mixed for another 45 minutes. The lysates were clarified by centrifugation for 25 minutes at 14,000 rpm. The lysates were then loaded over anti-glu-linked Protein-G Sepaharose beads (Covance Research Products, Richmond, Calif.) using 20 mL resin/50 g cell paste. The column was washed with 15 volumes of wash buffer (1 mM DTT, 0.2 mM EGTA, 1 mM Pefabloc, 0.5 μM aprotinin, 5 μM leupeptin, 2 μM pepstatin, 5 μM E64, 150 mM NaCl, 1% sodium cholate, pH 8). PI3Kγ was eluted with 6 column volumes of wash buffer that contain 100 μg/mL of a peptide that competes for binding of the glu tag. The column fractions with the eluted protein (determined by taking OD280 readings) were collected and dialyzed in 0.2 mM EGTA, 1 mM DTT, 1 mM Pefabloc, 5 μM leupeptin, 0.5% sodium cholate, 150 mM NaCl, and 50% glycerol, pH 8. The fractions were stored at −80° C. until further use.
Spodtera frugiperda cells were coinfected with baculovirus expressing a glu-tagged G protein β1 and baculovirus expressing a G protein […], at a 1:1 ratio of glu-tagged G protein […] baculovirus to G protein β2 baculovirus. Sf9 cells are grown in 10 L bioreactors and harvested 48-72 hours post infection. Samples of infected cells were tested for G protein β1/β2 expression by Western Blot analysis, as described below. Cell lysates were homogenized and loaded onto a column of glu-tagged beads as in Biological Example 1 and competed off the column with a glu peptide and processed as described in Biological Example 1.
The inhibitory properties of the compounds in Table 1 were assayed in an in vitro PI3K assay. In a 96-well polypropylene plate, each well was spotted with 2 μL of 50 times the desired final concentration of compound in DMSO. Purified recombinant p101/p110γ protein (0.03 μg; ˜2.7 nM) and G protein β1/γ2 subunits (0.09 μg; ˜57.7 nM) for each reaction was combined in the assay buffer (30 mM HEPES, 100 mM NaCl, 1 mM EGTA, and 1 mM DTT). ATP and [γ-^32P-ATP] (0.09 μCi) were added to this mixture so that the final ATP concentration in the reaction was 20 μM. Lipid micelles were formed by sonicating phosphatidylinositol-4,5-diphosphate (PIP2), phosphatidylethanolamine (PE), and Na-cholate in the assay buffer for 10 minutes, adding MgCl2 and incubating on ice for 20 minutes, for final concentrations of 25 μM PIP2, 300 μM PE, 0.02% Na-cholate, and 10 mM MgCl2 in the reaction. The reactions were started by adding equal volumes lipid and enzyme mixture in a total volume of 50 μL, allowed to run for 20 minutes at room temperature, and stopped with 100 μL 75 mM H3PO4. The lipid product was transferred to a glass fiber filter plate and washed with 75 mM H3PO4 several times. The presence of radioactive lipid product (PIP3) was measured by adding Wallac Optiphase mix to each well and counting in a Wallac 1450 Trilux plate reader (PerkinElmer Life Sciences Inc., Boston, Mass. 02118). The IC50 for each compound tested is reported in μM in the Tables above.

[2] = test system: Lewis rats, streptococcal cell wall-induced paw edema; test: SCW streptococcal cell wall-induced paw edema; type: in vivo; settings: 10, 30 and 100 mg/kg q.d. oral gavage for four days beginning on day 21, female Lewis rats
Experimental: Female Lewis rats (˜150 g) received 6 μg SCW in 10 μl Dulbecco's PBS by an intraarticular injection to the right tibiotalar joint on day 0. On day 21, the recurrence response was initiated with 100 μg SCW (250 μl, i.v.). Vehicle (0.5% hydroxypropylmethylcellulose/0.2% Tween 80) or the compound of Example 1 (4-Cycloheptyloxy-2-morpholin-4-yl-pyrimidine-5-carboxylic acid (2H-tetrazol-5-yl)-amide) was given orally (10 ml/kg volume), q.d., 1 hr prior to SCW, i.v., and on subsequent days. Baseline volumes of the sensitized hind paw were measured by a mercury displacement plethysmometer before disease initiation on day 21, and subtracted from subsequent assessments (made 24 hrs after each dose) to determine the Δ value (the difference between paw volume prior to disease initiation on day 21 and the paw volume 24 hours after each dose). The compound of Example 1 was dosed at 10, 30 and 100 mg/kg q.d. by oral gavage for four days beginning on day 21.

[3] = test system: DBA/1 LacJ mice, collagen induced arthritis; test: Murine collagen induced arthritis; type: in vivo; settings: 30 mg/kg q.d. oral gavage for two weeks beginning on day 27, female DBA/1 LacJ mice
Experimental: Bovine type II collagen (University of Utah) was diluted with 0.01N acetic acid to a concentration of 2 mg/mL and emulsified with an equal volume of Freund's complete adjuvant (Difco, Detroit, Mich.) supplemented with 1 mg/mL Mycobacterium tuberculosis Hra37. Age-matched (8-12 weeks) female DBA/1 LacJ mice (Jackson Laboratories, Bar Harbor, Me.) were immunized with 100 μL of emulsion (100 μg collagen) intradermally at the base of the tail. On Day 28 after immunization, the mice were given 50 μg Lipopolysaccharide (Sigma Aldrich, St Louis, Mo.) intraperitoneally (IP) in 100 μL saline. The compound of Example 1 (4-Cycloheptyloxy-2-morpholin-4-yl-pyrimidine-5-carboxylic acid (2H-tetrazol-5-yl)-amide) was dosed at 30 mg/kg q.d. by oral gavage for two weeks beginning on day 27. The development of arthritis was assessed on Days 27, 31, 34, 37, and 41. A clinical score was given to each limb using the following scale: (0) normal, (1) erythema and edema, (2) joint distortion, (3) joint ankylosis. Edema measurements on front paws, rear paws, and ankles were taken using constant tension calipers (Dyer, Lancaster, Pa.). The compound of Example 1 at 30 mg/kg q.d. inhibited paw edema in this model by 52%, and clinical score by 35%.

IC50 [1]: 197 nM
Structure (SMILES): O=C(Nc1nn[nH]n1)c1cnc(N2CCOCC2)nc1OC1CCCCCC1 [Example 1, 4-Cycloheptyloxy-2-morpholin-4-yl-pyrimidine-5-carboxylic acid (2H-tetrazol-5-yl)-amide]
ID50 for inhibition of paw edema [2]: 16.3 mg/kg
inhibition of clinical score [3]: 35%
inhibition of paw edema [3]: 52%
